Test results as given in US20260306640A1, “TECHNOLOGIES TARGETING CELL STATES” (Auron Therapeutics, Inc., priority 2023, published 2026).

Legend:
KAT2B = KAT2B (Homo sapiens, UniProt Q92831); experiment: KAT2B degradation, Western Blot (Jess), NCI-H1048 cells; format: cell-based; parameters: degrader, Western blot (Jess); conditions: NCI-H1048 cells, KAT2B, 24 h, Western Blot, vs DMSO; read-out: KAT2B NCI-H1048 DC50
How it was run: (§1)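 NCI-H1048 cells grown in HITES medium with 5% FBS were treated with compounds for 24 h at 37° C. Lysates were run by capillary Western (Jess) with KAT2A or KAT2B antibodies and chemiluminescent detection. DC50 derived from percent protein reduction versus DMSO control.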

KAT2A = KAT2A (Homo sapiens, UniProt Q92830); experiment: KAT2A degradation, Western Blot (Jess), NCI-H1048 cells; format: cell-based; parameters: degrader, Western blot (Jess); conditions: NCI-H1048 cells, KAT2A, 24 h, Western Blot, vs DMSO; read-out: KAT2A NCI-H1048 DC50
How it was run: as §1

Sequence of KAT2A (Q92830 whole entry): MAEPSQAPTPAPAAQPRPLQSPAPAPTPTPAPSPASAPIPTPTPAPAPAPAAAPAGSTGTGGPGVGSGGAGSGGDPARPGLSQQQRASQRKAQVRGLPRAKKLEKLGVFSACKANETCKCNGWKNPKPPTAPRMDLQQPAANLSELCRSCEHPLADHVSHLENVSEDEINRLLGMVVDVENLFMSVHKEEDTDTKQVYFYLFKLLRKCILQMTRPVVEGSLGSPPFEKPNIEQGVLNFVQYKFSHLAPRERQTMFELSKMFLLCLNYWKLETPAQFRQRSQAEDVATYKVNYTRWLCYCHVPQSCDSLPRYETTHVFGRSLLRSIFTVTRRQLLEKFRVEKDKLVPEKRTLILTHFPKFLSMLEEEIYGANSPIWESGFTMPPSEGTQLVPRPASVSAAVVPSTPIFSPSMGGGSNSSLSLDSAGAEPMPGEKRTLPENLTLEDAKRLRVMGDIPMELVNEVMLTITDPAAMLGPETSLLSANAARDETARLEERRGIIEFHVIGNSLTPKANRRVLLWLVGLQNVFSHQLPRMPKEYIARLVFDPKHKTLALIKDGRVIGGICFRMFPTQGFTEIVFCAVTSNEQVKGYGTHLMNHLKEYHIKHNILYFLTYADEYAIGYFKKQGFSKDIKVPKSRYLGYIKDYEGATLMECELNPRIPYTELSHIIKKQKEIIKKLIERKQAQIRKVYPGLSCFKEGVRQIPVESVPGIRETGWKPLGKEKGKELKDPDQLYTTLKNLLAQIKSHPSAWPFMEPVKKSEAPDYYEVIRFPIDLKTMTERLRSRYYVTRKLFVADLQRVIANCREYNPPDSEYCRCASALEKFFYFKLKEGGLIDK
Sequence of KAT2B (Q92831 whole entry): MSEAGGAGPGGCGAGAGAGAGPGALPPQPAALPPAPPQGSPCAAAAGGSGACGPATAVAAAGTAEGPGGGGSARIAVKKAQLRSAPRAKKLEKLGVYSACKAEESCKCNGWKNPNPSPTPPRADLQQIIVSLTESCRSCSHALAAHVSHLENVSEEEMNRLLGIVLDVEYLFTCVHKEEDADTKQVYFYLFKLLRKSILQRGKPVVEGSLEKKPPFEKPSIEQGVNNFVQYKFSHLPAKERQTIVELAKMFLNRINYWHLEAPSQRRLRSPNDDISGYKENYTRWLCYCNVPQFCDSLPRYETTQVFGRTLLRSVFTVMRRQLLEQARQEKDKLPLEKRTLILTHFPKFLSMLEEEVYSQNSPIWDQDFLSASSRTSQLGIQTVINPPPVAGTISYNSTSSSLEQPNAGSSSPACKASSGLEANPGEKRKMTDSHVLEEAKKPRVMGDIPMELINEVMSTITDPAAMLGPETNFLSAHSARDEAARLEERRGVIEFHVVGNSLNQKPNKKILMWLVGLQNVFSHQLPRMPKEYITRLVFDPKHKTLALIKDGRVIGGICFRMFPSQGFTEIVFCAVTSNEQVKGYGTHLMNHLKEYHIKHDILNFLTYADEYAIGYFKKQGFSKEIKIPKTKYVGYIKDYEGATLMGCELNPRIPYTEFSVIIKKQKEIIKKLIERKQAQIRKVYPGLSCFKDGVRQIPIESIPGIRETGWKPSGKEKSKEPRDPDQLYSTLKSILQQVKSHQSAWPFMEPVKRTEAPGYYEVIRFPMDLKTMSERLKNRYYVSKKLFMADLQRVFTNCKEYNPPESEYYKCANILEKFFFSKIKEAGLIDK

| SMILES | DC50 (KAT2B) | DC50 (KAT2A) |
| --- | --- | --- |
| Cc1c(N[C@@H]2C[C@H](c3ccc(CN4CCN(c5ccc(F)c(C6CCC(=O)NC6=O)c5)CC4)cc3)CN(C)C2)cnn(C)c1=O (some centres unmarked) [Compound 342] | 1 to 30 nM | < 1 nM |
| Cc1cc(N2CCC(N3CCN(C(=O)c4ccc([C@H]5C[C@@H](Nc6cnn(C)c(=O)c6Br)CN(C)C5)cc4)CC3)CC2)ccc1C1CCC(=O)NC1=O (some centres unmarked) [Compound 309] | > 30 nM | < 1 nM |
| C[C@H](Nc1nn(C)c(=O)c2ccccc12)[C@H](c1ccc(C(=O)N2CCC3(CC2)CCN(c2ccc(C4CCC(=O)NC4=O)cc2)CC3)cc1)N(C)C (stereo partly drawn) [Compound 432, 3-(4-(9-(4-((1S,2S)-1-(dimethylamino)-2-((3-methyl-4-oxo-3,4-dihydro-phthalazin-1-yl)amino)propyl)benzoyl)-3,9-diazaspiro[5.5]undecan-3-yl)phenyl)piperid-ine-2,6-dione] | > 30 nM | < 1 nM |
| CN1C[C@H](Nc2cnn(C)c(=O)c2Br)C[C@H](c2ccc(C(=O)N3CCC(c4ccc5c(C6CCC(=O)NC6=O)nccc5c4)CC3)cc2)C1 (some centres unmarked) [Compound 377] | > 30 nM | < 1 nM |
| CN1C[C@H](Nc2cnn(C)c(=O)c2Br)C[C@H](c2ccc(C(=O)N3CC(c4ccc5c(c4)C(=O)N(C4CCC(=O)NC4=O)C5=O)C3)cc2)C1 (some centres unmarked) [Compound 197] | > 30 nM | 1 to 30 nM |
| CN1C[C@H](Nc2cnn(C)c(=O)c2Cl)C[C@H](c2ccc(C(=O)N3CCC(Oc4ccc(C5CCC(=O)NC5=O)c(F)c4)CC3)cc2)C1 (some centres unmarked) [Compound 203] | 1 to 30 nM | < 1 nM |
| Cc1cc(N2CCC3(CCN(Cc4ccc([C@H]5C[C@@H](Nc6cnn(C)c(=O)c6C)CN(C)C5)cc4)CC3)CC2)ccc1C1CCC(=O)NC1=O (some centres unmarked) [Compound 339] | < 1 nM | < 1 nM |
| CN1C[C@H](Nc2cnn(C)c(=O)c2Br)C[C@H](c2ccc(C(=O)N3CC(C#Cc4ccc(C5CCC(=O)NC5=O)cc4)C3)cc2)C1 (some centres unmarked) [Compound 335] | > 30 nM | < 1 nM |
| CN1C[C@H](Nc2cnn(C)c(=O)c2Cl)C[C@H](c2ccc(CN3CCN(c4ccc5c(C6CCC(=O)NC6=O)cncc5c4)CC3)cc2)C1 (some centres unmarked) [Compound 381] | < 1 nM | 1 to 30 nM |
| CN1C[C@H](Nc2cnn(C)c(=O)c2Cl)C[C@H](c2ccc(CN3CCN(c4cccc(C5CCC(=O)NC5=O)c4)CC34CC4)cc2)C1 (some centres unmarked) [Compound 347] | > 30 nM | 1 to 30 nM |
| CN1C[C@H](Nc2nc3cc[nH]c3c(=O)n2C)C[C@H](c2ccc(C(=O)N3CCC4(CC3)CCN(c3ccc(C5CCC(=O)NC5=O)cc3)CC4)cc2)C1 (stereo partly drawn) [Compound 427, 3-(4-(9-(4-((3R,5R)-1-methyl-5-((3-methyl-4-oxo-4,5-dihydro-3H-pyrrolo[3,2-d]pyrimidin-2-yl)amino)piperidin-3-yl)benzoyl)-3,9-diazaspiro[5.5]undecan-3-yl)phenyl)piperidine-2,6-dione] | < 1 nM | < 1 nM |
| CN1C[C@H](Nc2cnn(C)c(=O)c2Br)C[C@H](c2ccc(CN3CCN(c4ccc5nc(C6CCC(=O)NC6=O)ccc5c4)CC3)cc2)C1 (some centres unmarked) [Compound 385] | 1 to 30 nM | 1 to 30 nM |
| Cc1c(N[C@@H]2C[C@H](c3ccc(CN4CCN(c5cccc(C6CCC(=O)NC6=O)c5)CC45CC5)cc3)CN(C)C2)cnn(C)c1=O (some centres unmarked) [Compound 349] | > 30 nM | < 1 nM |
| Cc1c(N[C@@H]2C[C@H](c3ccc(COc4ccc5c(c4)C(=O)N(C4CCC(=O)NC4=O)C5=O)cc3)CN(C)C2)cnn(C)c1=O (some centres unmarked) [Compound 192] | > 30 nM | < 1 nM |
| CN1C[C@H](Nc2cnn(C)c(=O)c2Cl)C[C@H](c2ccc(CN3C4CC3CN(c3cccc(C5CCC(=O)NC5=O)c3)C4)cc2)C1 (some centres unmarked) [Compound 369] | > 30 nM | 1 to 30 nM |
| CN1C[C@H](Nc2cnn(C)c(=O)c2Br)C[C@H](c2ccc(CN3CCN(C4CCC(N5CCC(=O)NC5=O)CC4)CC3)cc2)C1 (some centres unmarked) [Compound 206] | > 30 nM | > 30 nM |

Other lines, results leading:

| DC50 (KAT2B) | DC50 (KAT2A) | SMILES |
| --- | --- | --- |
| < 1 nM | < 1 nM | Cc1cc(N2CCC3(CCN(C(=O)c4ccc([C@H]5C[C@@H](Nc6cnn(C)c(=O)c6Br)CN(C)C5)cc4)CC3)CC2)cc(F)c1C1CCC(=O)NC1=O (some centres unmarked) [Compound 2-69] |
| 1 to 30 nM | 1 to 30 nM | Cc1c(N[C@@H]2C[C@H](c3ccc(C(=O)N4CCC5(CC4)CCN(c4cc(C(F)(F)F)c(C6CCC(=O)NC6=O)cn4)CC5)cc3)CN(C)C2)cnn(C)c1=O (some centres unmarked) [Compound 230] |
| 1 to 30 nM | < 1 nM | Cc1c(N2CCC3(CCN(C(=O)c4ccc([C@H]5C[C@@H](Nc6cnn(C)c(=O)c6Cl)CN(C)C5)cc4)CC3)CC2)ccc(C2CCC(=O)NC2=O)c1F (some centres unmarked) [Compound 237] |
| 1 to 30 nM | 1 to 30 nM | CN1C[C@H](Nc2cnn(C)c(=O)c2Br)C[C@H](c2ccc(C(=O)N3CCC4(CC3)CCN(c3cccc5c3C(=O)N(C3CCC(=O)NC3=O)C5=O)CC4)cc2)C1 (some centres unmarked) [Compound 17] |
| 1 to 30 nM | < 1 nM | CN1C[C@H](Nc2cnn(C)c(=O)c2Cl)C[C@H](c2ccc(C(=O)N3CCC4(CC3)CCN(c3ccc(C5CCC(=O)NC5=O)cc3C(F)(F)F)CC4)cc2)C1 (some centres unmarked) [Compound 227] |
| 1 to 30 nM | < 1 nM | Cc1cc(N2CCC3(CCN(C(=O)c4ccc([C@H]5C[C@@H](Nc6cnn(C)c(=O)c6Cl)CN(C)C5)cc4)CC3)CC2)cnc1C1CCC(=O)NC1=O (some centres unmarked) [Compound 247] |
| > 30 nM | > 30 nM | Cn1ncc(N[C@@H]2C[C@H](c3ccc(C(=O)N4CCC5(CC4)CCN(c4ccc(C6CCC(=O)NC6=O)cc4)CC5)cc3)CN(C3CC3)C2)c(Br)c1=O (stereo partly drawn) [Compound 424, 3-(4-(9-(4-((3R,5R)-5-((5-bromo-1-methyl-6-oxo-1,6-dihydropyridazin-4-yl)amino)-1-cyclopropylpiperidin-3-yl)benzoyl)-3,9-diazaspiro[5.5]undecan-3-yl)phenyl)piperidine-2,6-dione] |
| 1 to 30 nM | < 1 nM | Cc1cc(C2CCC(=O)NC2=O)ccc1N1CCC2(CCN(C(=O)c3ccc([C@H]4C[C@@H](Nc5cnn(C)c(=O)c5C)CN(C)C4)cc3)CC2)CC1 (some centres unmarked) [Compound 249] |
| < 1 nM | < 1 nM | CN1C[C@H](Nc2cnn(C)c(=O)c2Br)C[C@H](c2ccc(C(=O)N3CCC4(CC3)CCN(c3ccc5c(C6CCC(=O)NC6=O)nccc5c3)CC4)cc2)C1 (some centres unmarked) [Compound 294] |
| < 1 nM | < 1 nM | Cc1cc(C2CCC(=O)NC2=O)cnc1N1CCC2(CCN(C(=O)c3ccc([C@H]4C[C@@H](Nc5cnn(C)c(=O)c5Cl)CN(C)C4)cc3)CC2)CC1 (some centres unmarked) [Compound 267] |
| 1 to 30 nM | < 1 nM | CN1C[C@H](Nc2cnn(C)c(=O)c2Cl)C[C@H](c2ccc(C(=O)N3CCC4(CC3)CCN(c3ccn(C5CCC(=O)NC5=O)c(=O)c3)CC4)cc2)C1 (some centres unmarked) [Compound 262] |
| < 1 nM | < 1 nM | CN1C[C@H](Nc2cnn(C)c(=O)c2Br)C[C@H](c2ccc(C(=O)N3CCC4(CC3)CCN(c3ccc5c(C6CCC(=O)NC6=O)cncc5c3)CC4)cc2)C1 (some centres unmarked) [Compound 297] |
| > 30 nM | 1 to 30 nM | COc1cc(N2CCC3(CCN(C(=O)c4ccc([C@H]5C[C@@H](Nc6cnn(C)c(=O)c6Br)CN(C)C5)cc4)CC3)CC2)c(F)cc1C1CCC(=O)NC1=O (some centres unmarked) [Compound 278] |
| < 1 nM | < 1 nM | CN1C[C@H](Nc2cnn(C)c(=O)c2Cl)C[C@H](c2ccc(C(=O)N3CCC4(CC3)CCN(c3ccc5c(c3)C(=O)N(C3CCC(=O)NC3=O)C5=O)CC4)cc2)C1 (some centres unmarked) [Compound 301] |
| > 30 nM | > 30 nM | CN1C[C@H](Nc2cnn(C)c(=O)c2Br)C[C@H](c2ccc(C(=O)N3CCC4(CC3)CCN(c3ccc(C5CCC(=O)NC5=O)c(C(F)(F)F)c3)CC4)cc2)C1 (some centres unmarked) [Compound 221] |
| < 1 nM | < 1 nM | Cc1cc(N2CCC3(CCN(C(=O)c4ccc([C@H]5C[C@@H](Nc6cnn(C)c(=O)c6Cl)CN(C)C5)cc4)CC3)CC2)cc(C)c1C1CCC(=O)NC1=O (some centres unmarked) [Compound 283] |
| 1 to 30 nM | < 1 nM | COc1cc(N2CCC3(CCN(C(=O)c4ccc([C@H]5C[C@@H](Nc6cnn(C)c(=O)c6Cl)CN(C)C5)cc4)CC3)CC2)cc(C)c1C1CCC(=O)NC1=O (some centres unmarked) [Compound 286] |
| < 1 nM | < 1 nM | Cc1cc(N2CCC3(CCN(C(=O)c4ccc([C@H]5C[C@@H](Nc6cnn(C)c(=O)c6Br)CN(C)C5)cc4)CC3)CC2)ncc1C1CCC(=O)NC1=O (some centres unmarked) [Compound 273] |
| 1 to 30 nM | < 1 nM | COc1cc(N2CCC3(CCN(C(=O)c4ccc([C@H]5C[C@@H](Nc6cnn(C)c(=O)c6Br)CN(C)C5)cc4)CC3)CC2)ccc1C1CCC(=O)NC1=O (some centres unmarked) [Compound 318] |
| > 30 nM | < 1 nM | CN1C[C@H](Nc2cnn(C)c(=O)c2Br)C[C@H](c2ccc(C(=O)N3CCC(c4ccc5c(C6CCC(=O)NC6=O)cncc5c4)CC3)cc2)C1 (some centres unmarked) [Compound 330] |
| > 30 nM | < 1 nM | CN1C[C@H](Nc2cnn(C)c(=O)c2Br)C[C@H](c2ccc(C(=O)N3CCC4(CC3)CCN(c3ccc5c(N6CCC(=O)NC6=O)nccc5c3)CC4)cc2)C1 [Compound 374] |
| > 30 nM | 1 to 30 nM | Cc1c(N[C@@H]2C[C@H](c3ccc(C(=O)N4CCC5(CC4)CCN(c4ccc(C6CCC(=O)NC6=O)cc4OC(F)(F)F)CC5)cc3)CN(C)C2)cnn(C)c1=O (some centres unmarked) [Compound 269] |
| < 1 nM | < 1 nM | CN1C[C@H](Nc2cnn(C)c(=O)c2Br)C[C@H](c2ccc(C(=O)N3CCC4(CC3)CCN(c3ccc(C5CCC(=O)NC5=O)cc3)CC4)cc2)C1 (single isomer, unassigned) [Compound 239] |
| > 30 nM | < 1 nM | CN1C[C@H](Nc2cnn(C)c(=O)c2Cl)C[C@H](c2ccc(C(=O)N3CCC4(CC3)CCN(c3cnn(C5CCC(=O)NC5=O)c3)CC4)cc2)C1 (some centres unmarked) [Compound 207] |
